Experiments:
Assay type in all cases: in vivo
[1] = system: larvae of the banded cucumber beetle (Diabrotica balteata); assay: Diabrotica balteata spray test; settings: 168 h, 100 g/ha (=32 μg/well), wheat seeds, after 7 days, read-out: efficacy (seedling growth)
Procedure: Diabrotica Balteata—Spray Test
• Solvent: 78.0 Parts by Weight of Acetone • 1.5 parts by weight of dimethylformamide • Emulsifier: Alkylarylpolyglycol Ether
(§1) To produce a suitable preparation of active compound, 1 part by weight of active compound is mixed with the stated amount of solvent, and the concentrate is diluted with water, containing an emulsifier concentration of 1000 ppm, to the desired concentration. Further test concentrations are prepared by dilution with emulsifier containing water.
Soaked wheat seeds (Triticum aestivum) are placed in a multiple well plate filled with agar and some water and are incubated for 1 day to germinate (5 seeds per well). The germinated wheat seeds are sprayed with a test solution containing the desired concentration of the active ingredient. Afterwards each unit is infected with 10-20 larvae of the banded cucumber beetle (Diabrotica balteata).
After 7 days efficacy in % is determined. 100% means all the seedlings have grown up like in the untreated, uninfected control; 0% means none of the seedlings have grown.

[2] = system: southern root-knot nematode (Meloidogyne incognita); assay: Meloidogyne incognita test; settings: 20 ppm, lettuce, after 14 days
Procedure: Meloidogyne Incognita—Test
• Solvent: 125.0 parts by weight of acetone
(§2) To produce a suitable preparation of active compound, 1 part by weight of active compound is mixed with the stated amount of solvent, and the concentrate is diluted with water to the desired concentration.
Vessels are filled with sand, a solution of the active ingredient, a suspension containing eggs and larvae of the southern root-knot nematode (Meloidogyne incognita) and lettuce seeds. The lettuce seeds germinate and the seedlings grow. Galls develop in the roots.
After 14 days the nematicidal effect in percent is determined by the formation of galls. 100% means no galls were found and 0% means the number of galls found on the roots of the treated plants was equal to that in untreated control plants.

[3] = system: larvae of the southern green stink bug (Nezara viridula); assay: Nezara viridula spray test; settings: 96 h, barley plants, after 4 days
Procedure: Nezara viridula—Spray Test • Solvent: 78.0 parts by weight of acetone • 1.5 parts by weight of dimethylformamide • Emulsifier: alkylarylpolyglycol ether
as §1
Barley plants (Hordeum vulgare) are sprayed with a test solution containing the desired concentration of the active ingredient and are infested with larvae of the southern green stink bug (Nezara viridula).
After 4 days mortality in % is determined. 100% means all the stink bugs have been killed; 0% means none of the stink bugs have been killed.

[4] = system: fall armyworm larvae (Spodoptera frugiperda); assay: Spodoptera frugiperda spray test; settings: 168 h, maize leaf sections, after 7 days
Procedure: Spodoptera frugiperda—Spray Test • Solvent: 78.0 parts by weight acetone • 1.5 parts by weight dimethylformamide • Emulsifier: alkylarylpolyglycol ether
(§3) To produce a suitable preparation of active compound, 1 part by weight of active compound is mixed with the stated amount of solvents and is diluted with water, containing an emulsifier concentration of 1000 ppm, to the desired concentration. Further test concentrations are prepared by dilution with emulsifier containing water.
Maize (Zea mays) leaf sections are sprayed with a preparation of the active ingredient of the desired concentration. Once dry, the leaf sections are infested with fall armyworm larvae (Spodoptera frugiperda).
After 7 days mortality in % is determined. 100% means all caterpillars have been killed and 0% means none of the caterpillars have been killed.

[5] = system: cattle tick larvae (Rhipicephalus microplus); assay: Rhipicephalus (Boophilus) microplus in-vitro contact test, larval cattle tick (strain Parkhurst, resistant against synthetic pyrethroids); settings: after 48 hours, read-out: efficacy (larvae dead or moribund); for pest or weed control at 1 µg/cm2, 100 g/ha: 1 μg/cm^2 (=100 g/ha); for pest or weed control at 5 µg/cm2, 500 g/ha: 5 μg/cm^2 (=500 g/ha)
Procedure: Rhipicephalus (Boophilus) Microplus—In-Vitro Contact Tests Larval Cattle Tick (Strain Parkhurst, Resistant Against Synthetic Pyrethroids)
9 mg compound is solved in 1 mL acetone and diluted with acetone to the desired concentration. 250 μL of the test solution is filled in 25 mL glass test tubes and homogeneously distributed on the inner walls by rotation and tilting on a shaking device (2 h at 30 rpm). With a compound concentration of 900 ppm, an inner surface of 44.7 cm^2 and a homogeneous distribution, a dose of 5 μg/cm^2 is achieved.
After the solvent has evaporated, each test tube is filled with 20-50 cattle tick larvae (Rhipicephalus microplus), closed with a perforated lid and incubated in a horizontal position at 85% relative humidity and 27° C. in an incubator. After 48 hours efficacy is determined. The larvae are patted on the ground of the tubes and negative geotactic behavior is recorded.
An efficacy of 100% means all larvae are dead or moribund; 0% means no larvae are dead or moribund.

[6] = system: adult engorged female ticks (Rhipicephalus microplus); assay: Rhipicephalus (Boophilus) microplus injection test; settings: 4 μg/tick, egg deposition after 7 days
Procedure: Rhipicephalus (Boophilus) Microplus—Injection Test
• Solvent: Dimethyl Sulfoxide
To produce a suitable preparation of active compound, 10 mg of active compound are dissolved in 0.5 mL solvent, and the concentrate is diluted with solvent to the desired concentration.
Five adult engorged female ticks (Rhipicephalus microplus) are injected with 1 μL compound solution into the abdomen. The ticks are transferred into replica plates and incubated in a climate chamber.
After 7 days egg deposition of fertile eggs is monitored. Eggs where fertility is not visible are stored in a climate chamber till hatching after about 42 days. An efficacy of 100% means all eggs are infertile; 0% means all eggs are fertile.

[7] = system: adult unfed cat fleas (Ctenocephalides felis); assay: Ctenocephalides felis oral test; settings: 48 h, 100 ppm in citrated cattle blood, after 2 days
Procedure: Ctenocephalides felis—Oral Test • Solvent: Dimethyl Sulfoxide
To produce a suitable preparation of active compound, 10 mg of active compound are dissolved in 0.5 mL solvent, and the concentrate is diluted with citrated cattle blood to the desired concentration.
Approximately 20 adult unfed cat fleas (Ctenocephalides felis) are placed in a flea chamber whose top and bottom is covered with gauze. A chamber whose bottom is sealed with parafilm, is filled with the blood-compound solution and placed on top of the flea chamber, so that the fleas can suck the blood. The blood chamber is heated to 37° C. whereas the flea chamber is kept at room temperature.
After 2 days mortality in % is determined. 100% means all the fleas have been killed; 0% means none of the fleas have been killed.

[8] = system: brown planthopper (Nilaparvata lugens); assay: Nilaparvata lugens spray test; settings: 96 h, rice plants, after 4 days
Procedure: Nilaparvata lugens—Spray Test • Solvent: 78.0 parts by weight of acetone • 1.5 parts by weight of dimethylformamide • Emulsifier: alkylarylpolyglycol ether
as §3
Rice plants (Oryza sativa) are sprayed with a preparation of the active ingredient of the desired concentration and the plants are infested with the brown planthopper (Nilaparvata lugens).
After 4 days mortality in % is determined. 100% means all planthoppers have been killed and 0% means none of the planthoppers have been killed.

[9] = system: adult mosquitoes Aedes aegypti strain MONHEIM; assay: Aedes aegypti test (AEDSAE surface treatment & contact assay); settings: 24 hours after contact, read-out: efficacy (mortality); for mortality at 20 mg/m2: surface concentration 20 mg/m^2, 30 minutes exposure; for mortality at 4 mg/m2: surface concentration 4 mg/m^2, 30 minutes exposure
Procedure: Aedes aegypti Test (AEDSAE Surface Treatment & Contact Assay) • Solvent: Aceton+2000 ppm rapeseed oil methyl ester (RME)
In order to produce a sufficient, active ingredient containing solution it is necessary to solve the test compound in the solvent-mix (acetone at 2 mg/ml/RME 2000 ppm). This solution is pipetted onto a glazed tile and after evaporation of the acetone, adult mosquitoes of the species Aedes aegypti strain MONHEIM are placed onto the dried surface. The exposure time is 30 minutes. Mortality in percent (%) is determined 24 hours after contact of the insects to the treated surface. 100% mortality means that all tested insects are dead, whereas 0% means that no insect died.

[10] = system: adult flies Musca domestica strain WHO-N; assay: Musca domestica test (MUSCDO surface treatment & contact assay); settings: 24 hours after contact, read-out: efficacy (mortality); for mortality at 20 mg/m2: surface concentration 20 mg/m^2, 30 minutes exposure
Procedure: Musca domestica Test (MUSCDO Surface Treatment & Contact Assay) • Solvent: Aceton+2000 ppm rapeseed oil methyl ester (RME)
In order to produce a sufficient, active ingredient containing solution it is necessary to solve the test compound in the solvent-mix (acetone at 2 mg/ml/RME 2000 ppm). This solution is pipetted onto a glazed tile and after evaporation of the acetone, adult flies of the species Musca domestica strain WHO-N are placed onto the dried surface. The exposure time is 30 minutes. Mortality in percent (%) is determined 24 hours after contact of the insects to the treated surface. 100% mortality means that all tested insects are dead, whereas 0% means that no insect died.

[11] = system: green peach aphid (Myzus persicae); assay: Myzus persicae spray test; settings: foliar, 120 h, 100 g/ha, Chinese cabbage leaf disks, after 5 days
Procedure: Myzus persicae—Spray Test • Solvent: 78.0 parts by weight acetone • 1.5 parts by weight dimethylformamide • Emulsifier: alkylarylpolyglycol ether
as §3
Chinese cabbage (Brassica pekinensis) leaf disks infected with all instars of the green peach aphid (Myzus persicae), are sprayed with a preparation of the active ingredient of the desired concentration.
(§4) After 5 days mortality in % is determined. 100% means all aphids have been killed and 0% means none of the aphids have been killed.

[12] = system: adult mosquitoes Culex quinquefasciatus strain P00; assay: Culex quinquefasciatus test (CULXFA surface treatment & contact assay); settings: 24 hours after contact, read-out: efficacy (mortality)
Procedure: Culex quinquefasciatus Test (CULXFA Surface Treatment & Contact Assay) • Solvent: Aceton+2000 ppm rapeseed oil methyl ester (RME)
In order to produce a sufficient, active ingredient containing solution it is necessary to solve the test compound in the solvent-mix (acetone at 2 mg/ml/RME 2,000 ppm). This solution is pipetted onto a glazed tile and after evaporation of the acetone, adult mosquitoes of the species Culex quinquefasciatus strain P00 are placed onto the dried surface. The exposure time is 30 minutes. Mortality in percent (%) is determined 24 hours after contact of the insects to the treated surface. 100% mortality means that all tested insects are dead, whereas 0% means that no insect died.

[13] = system: cotton aphid (Aphis gossypii); assay: Aphis gossypii oral test; settings: 120 h, after 5 days
Procedure: Aphis gossypii—Oral Test • Solvent: 100 Parts by Weight Acetone
as §2
50 μL compound solution is filled in microtiter plates and 150 μL IPL41 insect medium (33%+15% sugar) is added to obtain a total volume of 200 μL per well. Afterwards the plates are sealed with parafilm through which a mixed population of the cotton aphid (Aphis gossypii) can suck on the compound preparation.
as §4

[14] = system: green peach aphid (Myzus persicae); assay: Myzus persicae oral test; settings: 120 h, after 5 days
Procedure: Myzus persicae—Oral Test • Solvent: 100 parts by weight acetone
as §2
50 μL compound solution is filled in microtiter plates and 150 μL IPL41 insect medium (33%+15% sugar) is added to obtain a total volume of 200 μL per well. Afterwards the plates are sealed with parafilm through which a mixed population of the green peach aphid (Myzus persicae) can suck on the compound preparation.
as §4

[15] = surface concentration 4 mg/m^2, 30 minutes exposure

Compound | pest or weed control at 32 µg/disc, 100 g/ha [1] [%] | nematicidal effect (formation of galls) [2] [%] | mortality at 500 g/ha [3] [%] | mortality at 100 g/ha [4] [%] | pest or weed control at 1 µg/cm2, 100 g/ha [5] [%] | pest or weed control at 5 µg/cm2, 500 g/ha [5] [%] | efficacy (infertile eggs) [6] [%] | mortality at 100 ppm [7] [%] | mortality at 500 g/ha [8] [%] | mortality at 20 mg/m2 [9] [%] | mortality at 20 mg/m2 [10] [%] | mortality at 100 g/ha [11] [%] | mortality at 4 mg/m2 [9] [%] | mortality at 4 mg/m2 [12, 15] [%] | mortality at 20 mg/m2 ([12]; surface concentration 20 mg/m^2, 30 minutes exposure) [%] | mortality at 4 mg/m2 [10, 15] [%] | mortality at 100 ppm [13] [%] | mortality at 20 ppm [14] [%]
C[C@H](NC(=O)c1cc(OC(F)(F)F)cc(S(C)(=O)=O)c1)c1nc2cc(F)cnc2n1-c1ccc(C#N)cn1 [Example I-38] | 100 | 90 | 100 | 100 |  |  |  |  |  |  |  |  |  |  |  |  |  | 
C[C@H](NC(=O)c1cc(OC(F)(F)F)cc(C(C)(C)C#N)c1)c1nc2cccnc2n1-c1ccc(C#N)cn1 [Example I-1] | 100 |  |  | 100 | 90 | 80 | 100 | 100 | 100 | 80 to 100 | 80 to 100 |  |  |  |  |  |  | 
CNC(=O)c1ccc(-n2c(C(C)NC(=O)c3cc(C(F)(F)F)cc(C(F)(F)F)c3)nc3cccnc32)nc1 (stereo not drawn) [Example I-25] |  | 90 | 100 |  |  |  |  |  |  |  |  |  |  |  |  |  |  | 
C[C@H](NC(=O)c1cc(OC(F)(F)F)cc(C2(C#N)CC2)c1)c1nc2cccnc2n1-c1ccc(C#N)cn1 [Example I-3] | 100 |  | 100 | 100 | 90 | 90 | 100 |  | 90 | 80 to 100 | 80 to 100 | 100 | 80 to 100 | 80 to 100 | 80 to 100 | 80 to 100 |  | 
CNC(=O)c1ccc(-n2c(C(C)NC(=O)c3cc(OC(F)(F)F)cc(OC(F)(F)F)c3)nc3cccnc32)nc1 (stereo not drawn) [Example I-27] |  | 90 |  |  |  |  |  |  |  |  |  |  | 80 to 100 |  |  |  | 100 | 100
C[C@H](NC(=O)c1cc(OC(F)(F)F)cc(C2CC2)c1)c1nc2cccnc2n1-c1ccc(C#N)cn1 [Example I-2] |  |  |  | 100 | 100 | 100 | 100 |  |  | 80 to 100 | 80 to 100 |  |  |  |  |  |  | 

From patent publication US20240254121A1, “ALKYLAMIDE SUBSTITUTED, ANNULATED IMIDAZOLES AND USE THEREOF AS INSECTICIDES” (Bayer Aktiengesellschaft, priority 2021, published 2024)
